From patent US7030138B2, “Benzamidine derivatives” (Sankyo Company, Limited, priority 2001, dated 2006)
Where a name gives a salt, the structure may show the parent alone.

Tests used:
human factor-Xa = target: T1, human factor-Xa (Homo sapiens, UniProt P00742); assay: Determination of anti-factor Xa activity (S-2222 coloring substrate, absorbance at 405 nm); type: biochemical; conditions: human factor-Xa 0.25 unit/ml, S-2222 0.4 mM, Tris buffer pH 8.4, room temperature, 5 minutes; read-out: Inhibitory Action against Factor Xa Activity (IC50 (nM))
T1 construct: purchased Cosmobio Co., Ltd
T1 sequence (P00742 235-488 limits assumed): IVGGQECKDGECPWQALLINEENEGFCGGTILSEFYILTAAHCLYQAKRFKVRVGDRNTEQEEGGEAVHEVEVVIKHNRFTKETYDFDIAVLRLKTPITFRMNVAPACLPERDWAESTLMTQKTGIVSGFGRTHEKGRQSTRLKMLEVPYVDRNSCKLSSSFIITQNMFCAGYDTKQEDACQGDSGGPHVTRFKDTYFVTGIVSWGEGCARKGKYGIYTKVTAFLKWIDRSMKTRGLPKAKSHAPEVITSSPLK
T1 sequence (P00742 41-179 partner limits assumed): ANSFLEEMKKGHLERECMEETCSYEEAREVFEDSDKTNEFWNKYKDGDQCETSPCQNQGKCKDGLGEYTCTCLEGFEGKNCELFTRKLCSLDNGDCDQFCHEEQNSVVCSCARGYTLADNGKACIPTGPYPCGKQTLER
Experimental: Determination of Anti-factor Xa Activity
Anti-factor Xa activity was determined according to methods described by Hara et al. [Thrombo. Haemost., 71, 314 (1994)], which were slightly modified. S-2222, a coloring substrate (0.4 mM, Daiichi Pure Chemicals Co., Ltd.) and the test compounds were mixed in Tris hydrochloride buffered solution (50 mM, pH: 8.4) containing NaCl (0.9%). To this solution, human factor-Xa (0.25 unit/ml, Cosmobio Co., Ltd.) was added and the reaction was started. In the control group, distilled water was added to the Tris-buffered solution instead of the test compound. The reaction mixture (in total: 0.1 ml) was incubated at room temperature for 5 minutes. Optical absorbance of the reaction mixture was continuously determined at 405 nm with a 96-well microplate reader (Model 550, Biorad) and increase in the absorbance for 5 minutes was calculated as an indicator of factor Xa activity. To assess anti-factor Xa activities of the test compounds, concentrations of the test compounds to inhibit the factor Xa activity by 50% (IC50) were calculated.

bovine trypsin = target: T2, bovine trypsin (Bos taurus, UniProt P00760); assay: Determination of anti-trypsin activity (S-2222 coloring substrate, absorbance at 405 nm); type: biochemical; conditions: bovine trypsin 0.25 μg-protein/ml, S-2222 0.4 mM, Tris buffer pH 8.4, room temperature, 5 minutes; read-out: Inhibitory Action against Trypsin Activity (IC50 (nM))
T2 construct: purchased Sigma
T2 sequence (P00760 24-246): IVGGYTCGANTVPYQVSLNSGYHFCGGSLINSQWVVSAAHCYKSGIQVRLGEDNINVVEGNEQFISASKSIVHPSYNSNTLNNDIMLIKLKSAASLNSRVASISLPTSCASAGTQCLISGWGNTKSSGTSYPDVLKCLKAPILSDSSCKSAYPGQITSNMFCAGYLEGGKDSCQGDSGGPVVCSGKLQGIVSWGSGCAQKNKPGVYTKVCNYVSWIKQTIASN
Experimental: Determination of Anti-trypsin Activity
Anti-trypsin activity was determined according to methods described by Taniuchi et al. [Thromb. Haemost., 79, 543 (1998)], which were partially modified. S-2222, a coloring substrate (5 μl, final concentration: 0.4 mM, Daiichi Pure Chemicals Co., Ltd.) and the test compound (5 μl) were mixed with Tris hydrochloride buffered solution (50 mM, 85 μl, pH: 8.4) containing NaCl (0.9%). To this solution, bovine trypsin (5 μl, final concentration: 0.25 μg-protein/ml, Sigma) was added and the reaction was started. In the control group, distilled water was added to the Tris-buffered solution instead of the test compound. The reaction mixture (in total: 0.1 ml) was incubated at room temperature. Optical absorbance was continuously determined at 405 nm with a 96-well microplate reader (Model 550, Biorad) and increase in the absorbance for 5 minutes was calculated as an indicator of trypsin activity. To assess anti-trypsin activities of the test compounds, concentrations of the test compounds to inhibit the trypsin activity by 50% (IC50) were calculated.

Row | Compound | IC50 (human factor-Xa) [nM] | IC50 (bovine trypsin) [nM]
1 | CCOC(=O)CS(=O)(=O)N(C/C=C/c1cccc(C(=N)N)c1)c1ccc(OC2CCN(C(=N)c3ccccc3)CC2)c(Cl)c1 [Example 51, Ethyl N-[3-(3-amidinophenyl)-2-(E)-propenyl]-N-[4-(1-iminophenylmethylpiperidin-4-yloxy)-3-chlorophenyl]sulfamoylacetate dihydrochloride] | 6.9 | –
2 | N=C(N)c1cccc(/C=C/CN(c2ccc(OC3CCN(c4ccncc4)CC3)c(Cl)c2)S(=O)(=O)CC(=O)O)c1 [Example 28, N-[3-(3-Amidinophenyl)-2-(E)-propenyl]-N-[3-chloro-4-[1-(4-pyridyl)piperidin-4-yloxy]phenyl]sulfamoylacetic acid dihydrochloride] | 6.4 | 650
3 | N=C(N)c1cccc(/C=C/CN(c2ccc(OC3CCN(CCc4ccccc4)CC3)c(Cl)c2)S(=O)(=O)CC(=O)O)c1 [Example 12, N-[3-(3-Amidinophenyl)-2-(E)-propenyl]-N-[3-chloro-4-(1-phenethylpiperidin-4-yloxy)phenyl]sulfamoylacetic acid dihydrochloride] | 13 | –
4 | CN1CCC(Oc2ccc(N(C/C=C/c3cccc(C(=N)N)c3)S(=O)(=O)CC(=O)O)cc2C(F)(F)F)CC1 [Example 46, N-[3-(3-Amidinophenyl)-2-(E)-propenyl]-N-[4–1-methylpiperidin-4-yloxy)-3-trifluoromethylphenyl]sulfamoylacetic acid dihydrochloride] | 11 | –
5 | CCOC(=O)CS(=O)(=O)N(C/C=C/c1cccc(C(=N)N)c1)c1ccc(OC2CCN(C=N)CC2)c(Cl)c1 [Example 47, Ethyl N-[3-(3-amidinophenyl)-2-(E)-propenyl]-N-[3-chloro-4-[(1-formimidoylpiperidin-4-yloxy)phenyl]sulfamoylacetatedihydrochloride] | 6.1 | 790
6 | N=C(N)c1cccc(/C=C/CN(c2ccc(OC3CCN(Cc4ccccc4)CC3)c(Cl)c2)S(=O)(=O)CC(=O)O)c1 [Example 10, N-[3-(3-Amidinophenyl)-2-(E)-propenyl]-N-[4-(1-benzylpiperidin-4-yloxy)-3-chlorophenyl]sulfamoylacetic acid dihydrochloride] | 15 | –
7 | CCC(=N)N1CCC(Oc2ccc(N(C/C=C/c3cccc(C(=N)N)c3)S(=O)(=O)CC(=O)O)cc2Cl)CC1 [Example 50, N-[3-(3-Amidinophenyl)-2-(E)-propenyl]-N-[3-chloro-4-[1-(1-iminopropyl)piperidin-4-yloxy]phenyl]sulfamoylacetic acid dihydrochloride] | 6.3 | 1200
8 | N=C(N)c1cccc(/C=C/CN(c2ccc(OC3CCN(C4CCCC4)CC3)c(Cl)c2)S(=O)(=O)CC(=O)O)c1 [Example 38, N-[3-(3-Amidinophenyl)-2-(E)-propenyl]-N-[3-chloro-4-(1-cyclopentylpiperidin-4-yloxy)phenyl]sulfamoylacetic acid dihydrochloride] | 12 | –
9 | N=C(N)c1cccc(/C=C/CN(c2ccc(OC3CCN(CCc4ccccn4)CC3)c(Cl)c2)S(=O)(=O)CC(=O)O)c1 [Example 36, N-[3-(3-Amidinophenyl)-2-(E)-propenyl]-N-[3-chloro-4-[1-[2-(2-pyridyl)ethyl]piperidin-4-yloxy]phenyl]sulfamoylacetic acid trihydrochloride] | 13 | –
10 | CCN1CCC(Oc2ccc(N(C/C=C/c3cccc(C(=N)N)c3)S(=O)(=O)CC(=O)O)cc2Cl)CC1 [Example 4, N-[3-(3-Amidinophenyl)-2-(E)-propenyl]-N-[3-chloro-4-(1-ethylpiperidin-4-yloxy)phenyl]sulfamoylacetic acid dihydrochloride] | 10 | –
11 | CCOC(=O)CS(=O)(=O)N(C/C=C/c1cccc(C(=N)N)c1)c1ccc(OC2CCN(C)CC2)c(C(F)(F)F)c1 [Example 45, Ethyl N-[3-(3-amidinophenyl)-2-(E)-propenyl]-N-[4-(1-methylpiperidin-4-yloxy)-3-trifluoromethylphenyl]sulfamoylacetate dihydrochloride] | 7.9 | –

Now from value to molecule:

Row | IC50 (human factor-Xa) [nM] | IC50 (bovine trypsin) [nM] | Compound
12 | 11 | 2000 | N=C(N)c1cccc(/C=C/CN(c2ccc(OC3CCN(C4=NCCO4)CC3)c(Cl)c2)S(=O)(=O)CC(=O)O)c1 [Example 89, N-[3-(3-Amidinophenyl)-2-(E)-propenyl]-N-[3-chloro-4-[1-(4,5-dihydrooxazol-2-yl)piperidin-4-yloxy]phenyl]sulfamoylacetic acid dihydrochloride]
13 | 6.8 | 2100 | CCOC(=O)CS(=O)(=O)N(C/C=C/c1cccc(C(=N)N)c1)c1ccc(OC2CCN(C3=NCCC3)CC2)c(Cl)c1 [Example 53, Ethyl N-[3-(3-amidinophenyl)-2-(E)-propenyl]-N-[3-chloro-4-[1-(4,5-dihydro-3H-pyrrol-2-yl)piperidin-4-yloxy]phenyl]sulfamoylacetate dihydrochloride]
14 | 13 | – | CCOC(=O)CS(=O)(=O)N(C/C=C/c1cccc(C(=N)N)c1)c1ccc(OC2CCN(C3=NCCSC3)CC2)c(Cl)c1 [Example 83, Ethyl N-[3-(3-amidinophenyl)-2-(E)-propenyl]-N-[3-chloro-4-[1-(5,6-dihydro-2H-[1,4]thiazin-3-yl)piperidin-4-yloxy]phenyl]sulfamoylacetate dihydrochloride]
15 | 15 | – | CCOC(=O)CS(=O)(=O)N(C/C=C/c1cccc(C(=N)N)c1)c1ccc(OC2CCN(C3=NCCCC3)CC2)c(C(F)(F)F)c1 [Example 79, Ethyl N-[3-(3-amidinophenyl)-2-(E)-propenyl]-N-[4-[1-(2,3,4,5-tetrahydropyridin-6-yl)piperidin-4-yloxy]-3-trifluoromethylphenyl]sulfamoylacetate dihydrochloride]
16 | 15 | – | Cc1cc(N(C/C=C/c2cccc(C(=N)N)c2)S(=O)(=O)CC(=O)O)ccc1OC1CCN(C2=NCCCC2)CC1 [Example 68, N-[3-(3-Amidinophenyl)-2-(E)-propenyl]-N-[3-methyl-4-(2,3,4,5-tetrahydropyridin-6-yl)piperidin-4-yloxy]phenyl]sulfamoylacetic acid dihydrochloride]
17 | 7.8 | – | N=C(N)c1cccc(/C=C/CN(c2ccc(OC3CCN(C(=N)c4ccccc4)CC3)c(Cl)c2)S(=O)(=O)CC(=O)O)c1 [Example 52, N-[3-(3-Amidinophenyl)-2-(E)-propenyl]-N-[4-(1-iminophenylmethylpiperidin-4-yloxy)-3-chlorophenyl]sulfamoylacetic acid dihydrochloride]
18 | 11 | – | N=C(N)c1cccc(/C=C/CN(c2ccc(OC3CCN(C4=NCCCC4)CC3)c(C(F)(F)F)c2)S(=O)(=O)CC(=O)O)c1 [Example 80, N-[3-(3-Amidinophenyl)-2-(E)-propenyl]-N-[4-[1-(2,3,4,5-tetrahydropyridin-6-yl)piperidin-4-yloxy]-3-trifluoromethylphenyl]sulfamoylacetic acid dihydrochloride]
19 | 10 | – | N=C(N)c1cccc(/C=C/CN(c2ccc(OC3CCN(C4=NCCCC4)CC3)c(Cl)c2)S(=O)(=O)CC(=O)O)c1 [Example 56, N-[3-(3-Amidinophenyl)-2-(E)-propenyl]-N-[3-chloro-4-[1-(2,3,4,5-tetrahydropyridin-6-yl)piperidin-4-yloxy]phenyl]sulfamoylacetic acid dihydrochloride]
20 | 15 | – | CCN=CN1CCC(Oc2ccc(N(CC=Cc3cccc(C(=N)N)c3)S(=O)(=O)CC(=O)OCC)cc2Cl)CC1 [Example 86, Ethyl N-[3-(3-amidinophenyl)-2-(E)-propenyl]-N-[3-chloro-4-[1-(N-ethylformimidoyl)piperidin-4-yloxy]phenyl]sulfamoylacetate dihydrochloride]
21 | 15 | – | CCOC(=O)CS(=O)(=O)N(C/C=C/c1cccc(C(=N)N)c1)c1ccc(OC2CCN(C3=NCCCC3)CC2)c(C)c1 [Example 67, Ethyl N-[3-(3-amidinophenyl)-2-(E)-propenyl]-N-[3-methyl-4-[1-(2,3,4,5-tetrahydropyridin-6-yl)piperidin-4-yloxy]phenyl]sulfamoylacetate dihydrochloride]
